According to US10894792B2, “Pesticidally active heterocyclic derivatives with sulfur containing substituents” (SYNGENTA PARTICIPATIONS AG, priority 2017, dated 2021):

Tests used:
Type in all cases: in vivo
Myzus persicae [1] = assay: Activity against Myzus persicae (green peach aphid), sprayed sunflower leaf discs; details: foliar, 144 h, application rate of 200 ppm, aphid population of mixed ages, 6 days after infestation
Method: (§1) Sunflower leaf discs were placed on agar in a 24-well microtiter plate and sprayed with aqueous test solutions prepared from 10′000 ppm DMSO stock solutions. After drying, the leaf discs were infested with an aphid population of mixed ages. The samples were assessed for mortality 6 days after infestation.

Euschistus heros = assay: Activity against Euschistus heros (neotropical brown stink bug); details: 120 h, application rate of 200 ppm, sprayed soybean leaf, N-2 nymphs, 5 days after infestation, read-out: effect in at least one of the two categories (mortality or growth inhibition)
Method: Soybean leaf on agar in 24-well microtiter plates were sprayed with aqueous test solutions prepared from 10′000 ppm DMSO stock solutions. After drying the leaf were infested with N-2 nymphs. The samples were assessed for mortality and growth inhibition in comparison to untreated samples 5 days after infestation.

Myzus persicae [2] = assay: Activity against Myzus persicae (green peach aphid), roots of pea seedlings in test solution; details: 144 h, test rate of 24 ppm, roots of infested pea seedlings in test solution, 6 days
Method: Roots of pea seedlings infested with an aphid population of mixed ages were placed directly in the aqueous test solutions prepared from 10′000 DMSO stock solutions. The samples were assessed for mortality 6 days after placing seedlings in test solutions.

Plutella xylostella = assay: Activity against Plutella xylostella (diamond back moth), artificial diet; details: 120 h, application rate of 200 ppm, L2 larvae on artificial diet, 5 days after infestation, read-out: effect in at least one of the two categories (mortality or growth inhibition)
Method: (§2) 24-well microtiter plates with artificial diet were treated with aqueous test solutions prepared from 10′000 ppm DMSO stock solutions by pipetting. After drying, the plates were infested with L2 larvae (10 to 15 per well). The samples were assessed for mortality and growth inhibition in comparison to untreated samples 5 days after infestation.

Bemisia tabaci = assay: Activity against Bemisia tabaci (cotton white fly); details: foliar, 144 h, application rate of 200 ppm, sprayed cotton leaf discs, adult white flies, 6 days after incubation
Method: Cotton leaf discs were placed on agar in 24-well microtiter plates and sprayed with aqueous test solutions prepared from 10′000 ppm DMSO stock solutions. After drying the leaf discs were infested with adult white flies. The samples were checked for mortality 6 days after incubation.

Diabrotica Balteata = assay: Activity against Diabrotica balteata (corn root worm); details: 96 h, application rate of 200 ppm, sprayed maize sprouts, L2 larvae, 4 days after infestation, read-out: effect in at least one of the two categories (mortality or growth inhibition)
Method: as §2, with “Maize sprouts placed onto an agar layer in 24-well” for “24-well”, “plates” for “plates with artificial diet”, “spraying.” for “pipetting.”, “(6” for “(10”, “10” for “15”, “4” for “5”

[3] = system: Frankliniella occidentalis; assay: Activity against Frankliniella occidentalis (western flower thrips); details: foliar, 168 h, application rate of 200 ppm, sprayed sunflower leaf discs, population of mixed ages, 7 days after infestation
Method: as §1, with “in” for “in a”, “plates” for “plate”, “[…]” for “10′000 ppm”, “drying” for “drying,”, “a Frankliniella” for “an aphid”, “7” for “6”

Spodoptera littoralis = assay: Activity against Spodoptera littoralis (Egyptian cotton leaf worm); details: foliar, 72 h, application rate of 200 ppm, sprayed cotton leaf discs, L1 larvae, 3 days after infestation, read-out: control (mortality, anti-feeding effect, or growth inhibition)
Method: Cotton leaf discs were placed onto agar in 24-well microtiter plates and sprayed with aqueous test solutions prepared from 10′000 ppm DMSO stock solutions. After drying the leaf discs were infested with five L1 larvae. The samples were assessed for mortality, anti-feeding effect, and growth inhibition in comparison to untreated samples 3 days after infestation. Control of Spodoptera littoralis by a test sample is given when at least one of the categories mortality, anti-feedant effect, and growth inhibition is higher than the untreated sample.

CCS(=O)(=O)c1cc(C(=O)N=S2(=O)CCOCC2)cnc1-c1nc2cc(C(F)(F)F)ncc2n1C [Compound P2, 5-ethylsulfonyl-6-[3-methyl-6-(trifluoromethyl)imidazo[4,5-c]pyridin-2-yl]-N-(4-oxo-1,4-oxathian-4-ylidene)pyridine-3-carboxamide]
≥ 80%: mortality at 200 ppm (Myzus persicae [1]) | percent effect (mortality or growth inhibition) at 200 ppm (Euschistus heros) | mortality at 24 ppm (Myzus persicae [2])

CCS(=O)(=O)c1cc(C(=O)N=S(=O)(CC)CC)cnc1-c1nc2cc(C(F)(F)F)ncc2n1C [Compound P3]
≥ 80%: percent effect (mortality or growth inhibition) at 200 ppm (Plutella xylostella) | mortality at 200 ppm (Myzus persicae [1]) | percent effect (mortality or growth inhibition) at 200 ppm (Euschistus heros) | mortality at 200 ppm (Bemisia tabaci) | mortality at 24 ppm (Myzus persicae [2])

CCS(=O)(=O)c1cc(C(=O)N=S(C)C)cnc1-c1nc2cc(C(F)(F)F)ncc2n1C [Compound P5, N-(dimethyl-λ^4-sulfanylidene)-5-ethylsulfonyl-6-[3-methyl-6-(trifluoromethyl)imidazo[4,5-c]pyridin-2-yl]pyridine-3-carboxamide]
≥ 80%: mortality at 200 ppm (Myzus persicae [1]) | percent effect (mortality or growth inhibition) at 200 ppm (Euschistus heros) | mortality at 200 ppm (Bemisia tabaci) | percent effect (mortality or growth inhibition) at 200 ppm (Diabrotica Balteata) | mortality at 24 ppm (Myzus persicae [2])

CCS(=O)(=O)c1cc(C(=O)N=S(C)(C)=O)cnc1-c1nc2cc(C(F)(F)F)nnc2n1C [Compound P6, N-[dimethyl(oxo)-λ^6-sulfanylidene]-5-ethylsulfonyl-6-[7-methyl-3-(trifluoromethyl)imidazo[4,5-c]pyridazin-6-yl]pyridine-3-carboxamide]
≥ 80%: percent effect (mortality or growth inhibition) at 200 ppm (Plutella xylostella) | mortality at 200 ppm (Myzus persicae [1]) | percent effect (mortality or growth inhibition) at 200 ppm (Euschistus heros) | mortality at 200 ppm (Bemisia tabaci) | percent effect (mortality or growth inhibition) at 200 ppm (Diabrotica Balteata) | mortality at 24 ppm (Myzus persicae [2])

CCS(=O)(=O)c1cc(C(=O)N=S(C)(C)=O)ccc1-c1cn2cnc(C(F)(F)F)cc2n1 [Compound P7, N-[dimethyl(oxo)-λ^6-sulfanylidene]-3-ethylsulfonyl-4-[7-(trifluoromethyl)imidazo[1,2-c]pyrimidin-2-yl]benzamide]
≥ 80%: percent effect (mortality or growth inhibition) at 200 ppm (Plutella xylostella) | mortality at 200 ppm (Myzus persicae [1]) | mortality at 200 ppm [3] | percent effect (mortality or growth inhibition) at 200 ppm (Diabrotica Balteata) | mortality at 24 ppm (Myzus persicae [2])

CCS(=O)(=O)c1cc(C(=O)N=S(C)(=O)CC)cnc1-c1nc2cc(C(F)(F)F)nnc2n1C (stereo not shown) [Compound P9, N-(ethyl-methyl-oxo-λ^6-sulfanylidene)-5-ethylsulfonyl-6-[7-methyl-3-(trifluoromethyl)imidazo[4,5-c]pyridazin-6-yl]pyridine-3-carboxamide]
≥ 80%: percent effect (mortality or growth inhibition) at 200 ppm (Plutella xylostella) | mortality at 200 ppm (Myzus persicae [1]) | percent effect (mortality or growth inhibition) at 200 ppm (Euschistus heros) | mortality at 200 ppm [3] | mortality at 200 ppm (Bemisia tabaci) | percent effect (mortality or growth inhibition) at 200 ppm (Diabrotica Balteata) | mortality at 24 ppm (Myzus persicae [2])

CCS(CC)=NC(=O)c1cnc(-c2nc3cc(C(F)(F)F)ncc3n2C)c(S(=O)(=O)CC)c1 [Compound P10, N-(diethyl-λ^4-sulfanylidene)-5-ethylsulfonyl-6-[3-methyl-6-(trifluoromethyl)imidazo[4,5-c]pyridin-2-yl]pyridine-3-carboxamide]
≥ 80%: percent effect (mortality or growth inhibition) at 200 ppm (Plutella xylostella) | mortality at 200 ppm (Myzus persicae [1]) | percent effect (mortality or growth inhibition) at 200 ppm (Euschistus heros) | mortality at 200 ppm [3] | mortality at 200 ppm (Bemisia tabaci) | mortality at 24 ppm (Myzus persicae [2])

CCS(=O)(=O)c1cc(C(=O)N=S2(=O)CCC2)cnc1-c1nc2cc(C(F)(F)F)ncc2n1C [Compound P12, 5-ethylsulfonyl-6-[3-methyl-6-(trifluoromethyl)imidazo[4,5-c]pyridin-2-yl]-N-(1-oxothietan-1-ylidene)pyridine-3-carboxamide]
≥ 80%: percent effect (mortality or growth inhibition) at 200 ppm (Plutella xylostella) | mortality at 200 ppm (Myzus persicae [1]) | mortality at 200 ppm (Bemisia tabaci) | mortality at 24 ppm (Myzus persicae [2])

CCS(=O)(=O)c1cc(C(=O)N=S2(=O)CCOCC2)cnc1-c1nc2cc(C(F)(F)F)cnc2n1C [Compound P17, 5-ethylsulfonyl-6-[3-methyl-6-(trifluoromethyl)imidazo[4,5-b]pyridin-2-yl]-N-(4-oxo-1,4-oxathian-4-ylidene)pyridine-3-carboxamide]
≥ 80%: percent effect (mortality or growth inhibition) at 200 ppm (Plutella xylostella) | mortality at 200 ppm (Myzus persicae [1]) | percent effect (mortality or growth inhibition) at 200 ppm (Euschistus heros) | mortality at 24 ppm (Myzus persicae [2])

CCS(=O)(=O)c1cc(C(=O)N=S(=O)(CC)CC)cnc1-c1nc2cc(C(F)(F)F)nnc2n1C [Compound P18, N-[diethyl(oxo)-λ^6-sulfanylidene]-5-ethylsulfonyl-6-[7-methyl-3-(trifluoromethyl)imidazo[4,5-c]pyridazin-6-yl]pyridine-3-carboxamide]
≥ 80%: percent effect (mortality or growth inhibition) at 200 ppm (Plutella xylostella) | mortality at 200 ppm (Myzus persicae [1]) | percent effect (mortality or growth inhibition) at 200 ppm (Euschistus heros) | mortality at 200 ppm (Bemisia tabaci) | percent effect (mortality or growth inhibition) at 200 ppm (Diabrotica Balteata) | mortality at 24 ppm (Myzus persicae [2])

CCS(=O)(=O)c1cc(C(=O)N=S(=O)(CC)CC)cnc1-c1nc2cc(C(F)(F)F)cnc2n1C [Compound P19, N-[diethyl(oxo)-λ^6-sulfanylidene]-5-ethylsulfonyl-6-[3-methyl-6-(trifluoromethyl)imidazo[4,5-b]pyridin-2-yl]pyridine-3-carboxamide]
≥ 80%: percent effect (mortality or growth inhibition) at 200 ppm (Plutella xylostella) | mortality at 200 ppm (Myzus persicae [1]) | percent effect (mortality or growth inhibition) at 200 ppm (Euschistus heros) | mortality at 200 ppm [3] | mortality at 200 ppm (Bemisia tabaci) | mortality at 24 ppm (Myzus persicae [2])

CCS(=O)(=O)c1cc(C(=O)N=S(=O)(CC)CC)cnc1-c1cn2cnc(C(F)(F)F)cc2n1 [Compound P21, N-[diethyl(oxo)-λ^6-sulfanylidene]-5-ethylsulfonyl-6-[7-(trifluoromethyl)imidazo[1,2-c]pyrimidin-2-yl]pyridine-3-carboxamide]
≥ 80%: percent effect (mortality or growth inhibition) at 200 ppm (Plutella xylostella) | percent effect (mortality or growth inhibition) at 200 ppm (Euschistus heros) | percent control (mortality, anti-feedant effect or growth inhibition) at 200 ppm (Spodoptera littoralis)

CCS(=O)(=O)c1cc(C(=O)N=S(C)(C)=O)ccc1-c1nc2cc(C(F)(F)F)cnc2n1C [Compound P22, N-[dimethyl(oxo)-λ^6-sulfanylidene]-3-ethylsulfonyl-4-[3-methyl-6-(trifluoromethyl)imidazo[4,5-b]pyridin-2-yl]benzamide]
≥ 80%: percent effect (mortality or growth inhibition) at 200 ppm (Plutella xylostella) | mortality at 200 ppm (Myzus persicae [1]) | percent effect (mortality or growth inhibition) at 200 ppm (Euschistus heros) | mortality at 200 ppm [3] | mortality at 200 ppm (Bemisia tabaci) | percent effect (mortality or growth inhibition) at 200 ppm (Diabrotica Balteata) | mortality at 24 ppm (Myzus persicae [2])

CCS(=O)(=O)c1cc(C(=O)N=S(=O)(CC)CC)ccc1-c1nc2cc(C(F)(F)F)cnc2n1C [Compound P23, N-[diethyl(oxo)-λ^6-sulfanylidene]-3-ethylsulfonyl-4-[3-methyl-6-(trifluoromethyl)imidazo[4,5-b]pyridin-2-yl]benzamide]
≥ 80%: percent effect (mortality or growth inhibition) at 200 ppm (Plutella xylostella) | mortality at 200 ppm (Myzus persicae [1]) | percent effect (mortality or growth inhibition) at 200 ppm (Euschistus heros) | mortality at 200 ppm (Bemisia tabaci) | percent effect (mortality or growth inhibition) at 200 ppm (Diabrotica Balteata) | mortality at 24 ppm (Myzus persicae [2])

CCS(=O)(=O)c1cc(C(=O)N=S(C)(C)=O)cnc1-n1cc2cnc(C(F)(F)F)cc2n1 [Compound P24, N-[dimethyl(oxo)-λ^6-sulfanylidene]-5-ethylsulfonyl-6-[6-(trifluoromethyl)pyrazolo[4,3-c]pyridin-2-yl]pyridine-3-carboxamide]
≥ 80%: percent effect (mortality or growth inhibition) at 200 ppm (Plutella xylostella) | percent control (mortality, anti-feedant effect or growth inhibition) at 200 ppm (Spodoptera littoralis) | percent effect (mortality or growth inhibition) at 200 ppm (Diabrotica Balteata)
